According to patent US20230150970A1, “AMINOPYRIMIDINE DERIVATIVES AND THEIR USE AS ARYL HYDROCARBON RECEPTOR MODULATORS” (DONG-A ST CO., LTD., priority 2020, published 2023):

What follows are compounds tested against T1, AhR (Homo sapiens, UniProt P35869) (assay: In Vitro Assay 1: XRE-luciferase reporter assay, antagonism in human cell line (HepG2)). Conditions: Assay 1: AhR-Luc Human Antagonism (IC50, nM), unmarked values: kynurenine 200 μM, 6 hours.
T1 sequence (P35869 11-848): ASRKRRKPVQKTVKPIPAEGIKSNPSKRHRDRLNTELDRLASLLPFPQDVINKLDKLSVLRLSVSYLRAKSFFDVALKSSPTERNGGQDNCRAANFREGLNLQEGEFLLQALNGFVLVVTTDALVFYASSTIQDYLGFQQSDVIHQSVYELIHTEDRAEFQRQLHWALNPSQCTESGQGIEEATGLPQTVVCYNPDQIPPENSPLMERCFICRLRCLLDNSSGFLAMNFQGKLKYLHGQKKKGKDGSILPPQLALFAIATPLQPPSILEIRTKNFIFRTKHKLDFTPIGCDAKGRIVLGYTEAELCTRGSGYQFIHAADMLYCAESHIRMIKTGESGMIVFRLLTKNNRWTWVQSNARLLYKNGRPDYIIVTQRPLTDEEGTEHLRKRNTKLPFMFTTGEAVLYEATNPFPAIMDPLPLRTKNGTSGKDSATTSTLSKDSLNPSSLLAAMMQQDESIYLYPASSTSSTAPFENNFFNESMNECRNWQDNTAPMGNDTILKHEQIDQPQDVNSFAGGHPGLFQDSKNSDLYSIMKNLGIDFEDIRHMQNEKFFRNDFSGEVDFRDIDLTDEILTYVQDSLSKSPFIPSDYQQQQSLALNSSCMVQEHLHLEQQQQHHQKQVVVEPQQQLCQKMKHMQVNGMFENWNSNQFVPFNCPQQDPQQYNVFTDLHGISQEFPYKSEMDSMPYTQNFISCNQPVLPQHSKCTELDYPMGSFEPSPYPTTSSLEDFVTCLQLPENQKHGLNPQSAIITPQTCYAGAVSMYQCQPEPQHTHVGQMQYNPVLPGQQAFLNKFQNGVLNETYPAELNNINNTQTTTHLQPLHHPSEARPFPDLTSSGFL

Q: For `Cn1cc(-c2nc(-c3ccc(C(F)(F)F)cc3)cc(N3CCN(S(=O)(=O)CCO)CC3)n2)cn1` [Example 353, 2-((4-(2-(1-methyl-1H-pyrazol-4-yl)-6-(4-(trifluoromethyl)phenyl)pyrimidin-4-yl)piperazin-1-yl)sulfonyl)ethanol], which IC50 is on record?
A: 10 to 100 nM

Q: How did the IC50 turn out when `O=S(=O)(CCO)N1CCN(c2cc(-c3ccc(Cl)cc3)nc(-c3cnsc3)n2)CC1` [Example 368, 2-((4-(6-(4-chlorophenyl)-2-(isothiazol-4-yl)pyrimidin-4-yl)piperazin-1-yl)sulfonyl)ethanol] was run?
A: 10 to 100 nM

Q: How did the IC50 turn out when `OCC1CCN(c2cc(-c3ccc(N4CCOCC4)cc3)nc(-c3cccnc3O)n2)CC1` [Example 285, 3-(4-(4-(hydroxymethyl)piperidin-1-yl)-6-(4-morpholinophenyl)pyrimidin-2-yl)pyridin-2-ol] was run?
A: 10 to 100 nM

Q: With `O[C@H]1CCN(c2cc(-c3ccc(C(F)(F)F)cc3)nc(-c3cnsc3)n2)C1` [Example 350, (S)-1-(2-(isothiazol-4-yl)-6-(4-(trifluoromethyl)phenyl)pyrimidin-4-yl)pyrrolidin-3-ol] as the compound, how does the IC50 read?
A: < 10 nM

Q: With `Cn1cc(-c2nc(-c3ccc(C(F)(F)F)cc3)cc(N3CCC(CO)(S(C)(=O)=O)CC3)n2)cn1` [Example 357, (1-(2-(1-methyl-1H-pyrazol-4-yl)-6-(4-(trifluoromethyl)phenyl)pyrimidin-4-yl)-4-(methylsulfonyl)piperidin-4-yl)methanol] as the compound, how does the IC50 read?
A: < 10 nM

Q: `OC[C@@H]1CN(c2cc(-c3ccc(C(F)(F)F)cc3)nc(-c3cccnc3)n2)C[C@H]1O` [Example 267, (3S,4S)-4-(hydroxymethyl)-1-(2-(pyridin-3-yl)-6-(4-(trifluoromethyl)phenyl)pyrimidin-4-yl)pyrrolidin-3-ol] was tested. Which IC50 did it give?
A: < 10 nM

Q: For `OCCNc1ccc(-c2cc(N3CC[C@H](O)C3)nc(-c3cccnc3)n2)cc1` [Example 376, (S)-1-(6-(4-((2-hydroxyethyl)amino)phenyl)-2-(pyridin-3-yl)pyrimidin-4-yl)pyrrolidin-3-ol], which IC50 is on record?
A: 100 to 1000 nM

Q: `O=C1Cc2cc(-c3cc(N4CCC(CO)CC4)nc(-c4cccnc4)n3)ccc2N1` [Example 290, 5-(6-(4-(hydroxymethyl)piperidin-1-yl)-2-(pyridin-3-yl)pyrimidin-4-yl)indolin-2-one] was tested. Which IC50 did it give?
A: > 1000 nM

Q: With `Oc1ncccc1-c1cc(N2CC[C@H](O)C2)nc(-c2cccnc2)n1` [Example 317, (S)-3-(6-(3-hydroxypyrrolidin-1-yl)-2-(pyridin-3-yl)pyrimidin-4-yl)pyridin-2-ol] as the compound, how does the IC50 read?
A: > 1000 nM

Q: `Nc1ccc(-c2cc(N3CC[C@H](O)C3)nc(-c3cccnc3)n2)cc1` [Example 305, (S)-1-(6-(4-aminophenyl)-2-(pyridin-3-yl)pyrimidin-4-yl)pyrrolidin-3-ol] was tested. Which IC50 did it give?
A: > 1000 nM

Q: How did the IC50 turn out when `OCC1CCN(c2cc(-c3ccc(OC(F)(F)F)cc3)nc(-c3cccnc3)n2)CC1` [Example 227, (1-(2-(pyridin-3-yl)-6-(4-(trifluoromethoxy)phenyl)pyrimidin-4-yl)piperidin-4-yl)methanol] was run?
A: 10 to 100 nM

Same assay, conditions: Assay 1: AhR-Luc Human Antagonism (IC50, nM), values marked *: kynurenine 50 μM, 6 hours

Q: For `N[C@H]1CCCN(c2cc(-c3ccc(Cl)cc3)nc(-c3cccnc3)n2)C1` [Example 61, (S)-1-(6-(4-chlorophenyl)-2-(pyridin-3-yl)pyrimidin-4-yl)piperidin-3-amine], which IC50 is on record?
A: > 1000 nM

Q: For `CC(=O)C1(c2ccccc2)CCN(c2cc(-c3ccc(Cl)cc3)nc(-c3cccnc3)n2)CC1` [Example 155, 1-(1-(6-(4-chlorophenyl)-2-(pyridin-3-yl)pyrimidin-4-yl)-4-phenylpiperidin-4-yl)ethan-1-one], which IC50 is on record?
A: > 1000 nM

Q: With `OCCCC1CCN(c2cc(-c3ccc(Cl)cc3)nc(-c3cccnc3)n2)CC1` [Example 44, 3-(1-(6-(4-chlorophenyl)-2-(pyridin-3-yl)pyrimidin-4-yl)piperidin-4-yl)propan-1-ol] as the compound, how does the IC50 read?
A: < 10 nM

Q: Which IC50 does the source give for `OC[C@@H]1CCCN(c2cc(-c3ccc(Cl)cc3)nc(-c3cccnc3)n2)C1` [Example 147, (R)-(1-(6-(4-chlorophenyl)-2-(pyridin-3-yl)pyrimidin-4-yl)piperidin-3-yl)methanol] here?
A: < 10 nM

Q: With `Clc1ccc(-c2cc(N3CCC(N4CCOCC4)CC3)nc(-c3cccnc3)n2)cc1` [Example 156, 4-(1-(6-(4-chlorophenyl)-2-(pyridin-3-yl)pyrimidin-4-yl)piperidin-4-yl)morpholine] as the compound, how does the IC50 read?
A: < 10 nM

Q: For `O[C@H]1CCN(c2cc(-c3ccc(Cl)cc3)nc(-c3cccnc3)n2)C[C@H]1F` [Example 220, (3R,4S)-1-(6-(4-chlorophenyl)-2-(pyridin-3-yl)pyrimidin-4-yl)-3-fluoropiperidin-4-ol], which IC50 is on record?
A: 10 to 100 nM

Q: With `Clc1ccc(-c2cc(N3CCN(c4ccc(Cl)c(Cl)c4)CC3)nc(-c3cccnc3)n2)cc1` [Example 119, 4-(4-chlorophenyl)-6-(4-(3,4-dichlorophenyl)piperazin-1-yl)-2-(pyridin-3-yl)pyrimidine] as the compound, how does the IC50 read?
A: > 1000 nM

Q: Which IC50 does the source give for `Clc1ccc(-c2cc(NC3CCN(Cc4ccccc4)C3)nc(-c3cccnc3)n2)cc1` (stereo not shown) [Example 132, N-(1-benzylpyrrolidin-3-yl)-6-(4-chlorophenyl)-2-(pyridin-3-yl)pyrimidin-4-amine] here?
A: 100 to 1000 nM

Q: Which IC50 does the source give for `CCC(O)CNc1cc(-c2ccc(Cl)cc2)nc(-c2cccnc2)n1` (stereo not shown) [Example 24, 1-((6-(4-chlorophenyl)-2-(pyridin-3-yl)pyrimidin-4-yl)amino)butan-2-ol] here?
A: 100 to 1000 nM

Q: How did the IC50 turn out when `Clc1ccc(-c2cc(N[C@@H]3COC[C@H]3N3CCCC3)nc(-c3cccnc3)n2)cc1` (relative stereo) [Example 201, Trans-6-(4-chlorophenyl)-2-(pyridin-3-yl)-N-(4-(pyrrolidin-1-yl)tetrahydrofuran-3-yl)pyrimidin-4-amine] was run?
A: > 1000 nM

Q: Which IC50 does the source give for `Clc1ccc(-c2cc(NC3CCNC3)nc(-c3cccnc3)n2)cc1` (stereo not shown) [Example 126, 6-(4-chlorophenyl)-2-(pyridin-3-yl)-N-(pyrrolidin-3-yl)pyrimidin-4-amine] here?
A: > 1000 nM

Q: Which IC50 does the source give for `Cn1cc(-c2nc(N[C@H]3CC[C@H](O)CC3)cc(-c3ccc(Cl)cc3)n2)cn1` [Example 189, Trans-4-((6-(4-chlorophenyl)-2-(1-methyl-1H-pyrazol-4-yl)pyrimidin-4-yl)amino)cyclohexan-1-ol] here?
A: 100 to 1000 nM

Q: `Clc1ccc(-c2cc(N3CCN(C(c4ccccc4)c4ccccc4)CC3)nc(-c3cccnc3)n2)cc1` [Example 123, 4-(4-benzhydrylpiperazin-1-yl)-6-(4-chlorophenyl)-2-(pyridin-3-yl)pyrimidine] was tested. Which IC50 did it give?
A: > 1000 nM

Q: How did the IC50 turn out when `Cn1cc(-c2nc(N[C@@H]3CC[C@H](O)C3)cc(-c3ccc(Cl)cc3)n2)cn1` [Example 187, (1S,3R)-3-((6-(4-chlorophenyl)-2-(1-methyl-1H-pyrazol-4-yl)pyrimidin-4-yl)amino)cyclopentan-1-ol] was run?
A: 100 to 1000 nM

Q: `COC(=O)C1CNCCN1c1cc(-c2ccc(Cl)cc2)nc(-c2cccnc2)n1` (stereo not shown) [Example 112, methyl 1-(6-(4-chlorophenyl)-2-(pyridin-3-yl)pyrimidin-4-yl)piperazine-2-carboxylate] was tested. Which IC50 did it give?
A: > 1000 nM

Q: `Clc1ccc(-c2cc(NCC3CNCCO3)nc(-c3cccnc3)n2)cc1` (stereo not shown) [Example 72, 6-(4-chlorophenyl)-N-(morpholin-2-ylmethyl)-2-(pyridin-3-yl)pyrimidin-4-amine] was tested. Which IC50 did it give?
A: > 1000 nM

Q: Which IC50 does the source give for `O[C@@H]1CCN(c2cc(-c3ccc(Cl)cc3)nc(-c3cccnc3)n2)C[C@@H]1F` [Example 219, (3S,4R)-1-(6-(4-chlorophenyl)-2-(pyridin-3-yl)pyrimidin-4-yl)-3-fluoropiperidin-4-ol] here?
A: < 10 nM

Q: `COC(=O)[C@H]1CN(c2cc(-c3ccc(Cl)cc3)nc(-c3cccnc3)n2)CCN1` [Example 78, methyl (R)-4-(6-(4-chlorophenyl)-2-(pyridin-3-yl)pyrimidin-4-yl)piperazine-2-carboxylate] was tested. Which IC50 did it give?
A: > 1000 nM

Q: For `Clc1ccc(-c2cc(NCC3CCCNC3)nc(-c3cccnc3)n2)cc1` (stereo not shown) [Example 55, 6-(4-chlorophenyl)-N-(piperidin-3-ylmethyl)-2-(pyridin-3-yl)pyrimidin-4-amine], which IC50 is on record?
A: > 1000 nM

Q: For `Clc1ccc(-c2cc(N3CCNC[C@@H]3c3ccccc3)nc(-c3cccnc3)n2)cc1` [Example 113, (S)-4-(4-chlorophenyl)-6-(2-phenylpiperazin-1-yl)-2-(pyridin-3-yl)pyrimidine], which IC50 is on record?
A: > 1000 nM

Q: For `Clc1ccc(-c2cc(NCCCN3CCCC3)nc(-c3cccnc3)n2)cc1` [Example 130, 6-(4-chlorophenyl)-2-(pyridin-3-yl)-N-(3-(pyrrolidin-1-yl)propyl)pyrimidin-4-amine], which IC50 is on record?
A: > 1000 nM

Q: How did the IC50 turn out when `F[C@@H]1CCN(c2cc(-c3ccc(Cl)cc3)nc(-c3cccnc3)n2)C1` [Example 139, (R)-4-(4-chlorophenyl)-6-(3-fluoropyrrolidin-1-yl)-2-(pyridin-3-yl)pyrimidine] was run?
A: 10 to 100 nM

Same assay, conditions: read-out: Assay 1: AhR-Luc Human Antagonism (IC50), unmarked values: kynurenine 200 μM, 6 hours

Q: How did the IC50 turn out when `Cn1ccc(-c2cc(N3CCC(CO)CC3)nc(-c3cccnc3)n2)n1` [Example 293, 4 (1-(6-(1-methyl-1H-pyrazol-3-yl)-2-(pyridin-3-yl)pyrimidin-4-yl)piperidin-4-yl)methanol] was run?
A: > 1000 nM
